The target of this assay is human α2δ-1 subunit of Cav2.2 calcium channel (Homo sapiens (Human), UniProt P54289). Put plainly: Binding assay to human α2δ-1 subunit of Cav2.2 calcium channel ([3H]-Gabapentin). The settings on record: binding to α2δ-1, [3H]-Gabapentin; read-out: Ki (nM) α2δ-1. Put shortly:
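Radioactivity on dried GF/C filters quantified by scintillation after filtration and three cold Tris-HCl (pH 7.4) washes. Incubation ran 60 min at 27° C with [3H]-gabapentin; 10 μM pregabalin gave nonspecific binding.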

The structures appear in SMILES notation.

Sequence of human α2δ-1 subunit of Cav2.2 calcium channel (P54289 25-1103): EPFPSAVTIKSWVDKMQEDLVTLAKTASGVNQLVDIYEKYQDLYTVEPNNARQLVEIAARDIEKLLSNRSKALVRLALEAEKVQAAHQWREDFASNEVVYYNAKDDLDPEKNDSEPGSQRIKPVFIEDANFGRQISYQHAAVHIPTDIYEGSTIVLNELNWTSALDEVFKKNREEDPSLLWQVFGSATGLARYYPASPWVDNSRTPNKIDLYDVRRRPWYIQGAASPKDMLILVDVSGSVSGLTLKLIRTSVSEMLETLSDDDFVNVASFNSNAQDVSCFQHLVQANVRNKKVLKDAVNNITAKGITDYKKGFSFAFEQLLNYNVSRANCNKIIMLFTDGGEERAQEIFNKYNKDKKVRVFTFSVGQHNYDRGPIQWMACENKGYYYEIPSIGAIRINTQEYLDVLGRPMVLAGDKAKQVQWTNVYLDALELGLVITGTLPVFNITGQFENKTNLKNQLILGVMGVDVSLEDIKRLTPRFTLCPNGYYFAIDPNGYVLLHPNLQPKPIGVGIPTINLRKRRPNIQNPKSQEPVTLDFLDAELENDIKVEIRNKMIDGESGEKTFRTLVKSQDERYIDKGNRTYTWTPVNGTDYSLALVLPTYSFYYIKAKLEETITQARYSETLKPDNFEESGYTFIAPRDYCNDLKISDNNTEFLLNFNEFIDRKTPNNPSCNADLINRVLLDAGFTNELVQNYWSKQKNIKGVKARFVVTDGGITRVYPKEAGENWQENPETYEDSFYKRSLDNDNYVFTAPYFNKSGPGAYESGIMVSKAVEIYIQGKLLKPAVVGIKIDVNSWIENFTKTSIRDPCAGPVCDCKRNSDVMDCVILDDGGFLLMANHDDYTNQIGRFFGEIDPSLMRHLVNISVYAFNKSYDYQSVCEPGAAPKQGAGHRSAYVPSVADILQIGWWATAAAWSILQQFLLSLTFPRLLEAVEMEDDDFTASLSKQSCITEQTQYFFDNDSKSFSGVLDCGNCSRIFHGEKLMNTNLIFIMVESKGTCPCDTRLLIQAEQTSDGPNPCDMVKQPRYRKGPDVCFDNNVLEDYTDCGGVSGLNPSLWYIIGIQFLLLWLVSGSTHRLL

Take `CSc1ncc2c(n1)N(C)CCN(c1cccc(COC(CCN(C)C(=O)OC(C)(C)C)c3ccccc3)c1)C2=O` (stereo not drawn) [Example 9, tert-butyl methyl(3-((3-(9-methyl-2-(methylthio)-5-oxo-5,7,8,9-tetrahydro-6H-pyrimido[4,5-e][1,4]diazepin-6-yl)benzyl)oxy)-3-phenylpropyl) carbamate]: the Ki (usually the equilibrium dissociation constant of an inhibitor or competing ligand from its target) is above 3000 nM.

For the compound `CCNc1ncc2c(n1)N(CC)CCN(c1cccc(-c3nnc(C)o3)c1)C2=O` [Example 107, 9-ethyl-2-(ethylamino)-6-(3-(5-methyl-1,3,4-oxadiazol-2-yl)phenyl)-6,7,8,9-tetrahydro-5H-pyrimido[4,5-e][1,4]diazepin-5-one], the Ki fell in the range of 100 to 500 nM.

With `CCNc1ncc2c(n1)N(C)CCN(c1cccc(-n3cc(CCN(C)C(=O)OC(C)(C)C)nn3)c1)C2=O` [Example 120, tert-butyl (2-(1-(3-(2-(ethylamino)-9-methyl-5-oxo-5,7,8,9-tetrahydro-6H-pyrimido[4,5-e][1,4]diazepin-6-yl)phenyl)-1H-1,2,3-triazol-4-yl)ethyl)(methyl) carbamate], the Ki was above 3000 nM.

Turning to `CCNc1ncc2c(n1)N(C)CCN(c1cccc(CNC)c1)C2=O` [Example 174, 2-(ethylamino)-9-methyl-6-(3-((methylamino)methyl)phenyl)-6,7,8,9-tetrahydro-5H-pyrimido[4,5-e][1,4]diazepin-5-one], the Ki is 500 to 3000 nM.

On to `Cc1nnc(-c2cccc(N3CCN(C)c4nc(NCc5ccccc5)ncc4C3=O)c2)o1` [Example 102, 2-(benzylamino)-9-methyl-6-(3-(5-methyl-1,3,4-oxadiazol-2-yl)phenyl)-6,7,8,9-tetrahydro-5H-pyrimido[4,5-e][1,4]diazepin-5-one], for which the inhibition constant (Ki) was above 3000 nM.

For `CCNc1ncc2c(n1)N(C)CCN(Cc1ccccc1OC(CCNC)c1ccccc1)C2=O` (stereo not drawn) [Example 409, 2-(ethylamino)-9-methyl-6-(2-(3-(methylamino)-1-phenylpropoxy)benzyl)-6,7,8,9-tetrahydro-5H-pyrimido[4,5-e][1,4]diazepin-5-one], the inhibition constant (Ki) is above 3000 nM.

Take `CCNc1ncc2c(n1)N(C)CCN(c1cccc(COC(CCNC)C(C)C)c1)C2=O` (stereo not drawn) [Example 189, 2-(ethylamino)-9-methyl-6-(3-(((4-methyl-1-(methylamino)pentan-3-yl)oxy)methyl)phenyl)-6,7,8,9-tetrahydro-5H-pyrimido[4,5-e][1,4]diazepin-5-one]: the inhibition constant (Ki) lay in the range of 500 to 3000 nM.

Turning to `CCNc1ncc2c(n1)N(C)CCN(Cc1cccc(OC)c1)C2` [Example 67, N-ethyl-6-(3-methoxybenzyl)-9-methyl-6,7,8,9-tetrahydro-5H-pyrimido[4,5-e][1,4]diazepin-2-amine], the Ki was above 3000 nM.

For `CCNc1ncc2c(n1)N(C)CCN(c1cccc(-n3cc(CCN(C)C)nn3)c1)C2=O` [Example 248, 6-(3-(4-(2-(dimethylamino)ethyl)-1H-1,2,3-triazol-1-yl)phenyl)-2-(ethylamino)-9-methyl-6,7,8,9-tetrahydro-5H-pyrimido[4,5-e][1,4]diazepin-5-one], the Ki lay within 100 to 500 nM.

In the case of `CCNc1ncc2c(n1)N(C)CCN(c1cccc(-n3cnc(CNC)c3)c1)C2=O` [Example 186, 2-(ethylamino)-9-methyl-6-(3-(4-((methylamino)methyl)-1H-imidazol-1-yl)phenyl)-6,7,8,9-tetrahydro-5H-pyrimido[4,5-e][1,4]diazepin-5-one], the inhibition constant (Ki) is 100 to 500 nM.

Regarding `CNCCC(OCc1ccccc1N1CCN(C)c2nc(SC)ncc2C1=O)c1ccccc1` (stereo not drawn) [Example 318, 9-methyl-6-(2-((3-(methylamino)-1-phenylpropoxy)methyl)phenyl)-2-(methylthio)-6,7,8,9-tetrahydro-5H-pyrimido[4,5-e][1,4]diazepin-5-one], the inhibition constant Ki was above 3000 nM.

Turning to `CCNc1ncc2c(n1)N(C)CCN(c1cccc(OC(CNC)C(C)C)c1)C2=O` (stereo not drawn) [Example 158, 2-(ethylamino)-9-methyl-6-(3-((3-methyl-1-(methylamino)butan-2-yl)oxy)phenyl)-6,7,8,9-tetrahydro-5H-pyrimido[4,5-e][1,4]diazepin-5-one], the inhibitory constant (Ki) fell in the range of 500 to 3000 nM.

`CN(CC[C@@H](OCc1cccc(N2CCN(C)c3ncncc3C2=O)c1)c1ccccc1)C(=O)OC(C)(C)C` [Example 145, tert-Butyl (R)-methyl(3-((3-(9-methyl-5-oxo-5,7,8,9-tetrahydro-6H-pyrimido[4,5-e][1,4]diazepin-6-yl)benzyl)oxy)-3-phenylpropyl)carbamate]: the inhibitory constant (Ki) was above 3000 nM.

For the compound `CCNc1ncc2c(n1)N(C)CCN(c1cccc(-n3cnc(CN(C)C(=O)OC(C)(C)C)c3)c1)C2=O` [Example 123, tert-butyl ((1-(3-(2-(ethylamino)-9-methyl-5-oxo-5,7,8,9-tetrahydro-6H-pyrimido[4,5-e][1,4]diazepin-6-yl)phenyl)-1H-imidazol-4-yl)methyl)(methyl) carbamate], the Ki was above 3000 nM.

Consider `CCNc1ncc2c(n1)N(C)CCN(c1cccc(COC(CCN(C)C(=O)OC(C)(C)C)c3cccs3)c1)C2=O` (stereo not drawn) [Example 83, tert-butyl (3-((3-(2-(ethylamino)-9-methyl-5-oxo-5,7,8,9-tetrahydro-6H-pyrimido[4,5-e][1,4]diazepin-6-yl)benzyl)oxy)-3-(thiophen-2-yl)propyl)(methyl) carbamate], for which the Ki was above 3000 nM.

Take `CCNc1ncc2c(n1)N(C)CCN(c1cccc(-c3nnc(CN(C)C(=O)OC(C)(C)C)o3)c1)C2=O` [Example 124, tert-butyl ((5-(3-(2-(ethylamino)-9-methyl-5-oxo-5,7,8,9-tetrahydro-6H-pyrimido[4,5-e][1,4]diazepin-6-yl)phenyl)-1,3,4-oxadiazol-2-yl)methyl)(methyl) carbamate]: the Ki was above 3000 nM.

For the compound `CCNc1ncc2c(n1)N(C)CCN(c1ccccc1OC(CNC)c1ccccc1)C2=O` (stereo not drawn) [Example 338, 2-(ethylamino)-9-methyl-6-(2-(2-(methylamino)-1-phenylethoxy)phenyl)-6,7,8,9-tetrahydro-5H-pyrimido[4,5-e][1,4]diazepin-5-one], the inhibition constant Ki was above 3000 nM.

`CCNc1ncc2c(n1)N(C)CCN(c1ccc(OC)cc1)C2=O` [Example 114, 2-(ethylamino)-6-(4-methoxyphenyl)-9-methyl-6,7,8,9-tetrahydro-5H-pyrimido[4,5-e][1,4]diazepin-5-one]: the inhibition constant (Ki) was above 3000 nM.

Consider `CCNc1ncc2c(n1)N(C)CCN(c1cccc(OC)c1)C2=O` [Example 109, 2-(ethylamino)-6-(3-methoxyphenyl)-9-methyl-6,7,8,9-tetrahydro-5H-pyrimido[4,5-e][1,4]diazepin-5-one], for which the inhibition constant (Ki) lay within 500 to 3000 nM.

With `CCNc1ncc2c(n1)N(C)CCN(c1cccc(CO[C@H](CCN(C)C(=O)OC(C)(C)C)c3ccccc3)c1)C2=O` [Example 78, tert-butyl (R)-(3-((3-(2-(ethylamino)-9-methyl-5-oxo-5,7,8,9-tetrahydro-6H-pyrimido[4,5-e][1,4]diazepin-6-yl)benzyl)oxy)-3-phenylpropyl)(methyl) carbamate], the Ki is above 3000 nM.

With `CNCCC(OCc1ccccc1CN1CCN(C)c2nc(C)ncc2C1=O)c1ccccc1` (stereo not drawn) [Example 421, 2,9-dimethyl-6-(2-((3-(methylamino)-1-phenylpropoxy)methyl)benzyl)-6,7,8,9-tetrahydro-5H-pyrimido[4,5-e][1,4]diazepin-5-one], the inhibition constant Ki is above 3000 nM.

The values above are taken from patent US10590140B2, “Tetrahydropyrimidodiazepine and dihydropyridodiazepine compounds for treating pain and pain related conditions” (ESTEVE PHARMACEUTICALS, S.A., priority 2016, dated 2020).
